Converted amounts (≈) assume the structure as drawn.
Columns and labels:
Aspergillus fumigatus = assay: Antifungal activity against Aspergillus fumigatus KM8001 assessed as fungal growth inhibition measured after 72 hrs by CLSI protocol based liquid medium dilution method; format: functional
Candida albicans [1] = assay: Antifungal activity against Candida albicans ATCC 10231 assessed as fungal growth inhibition measured after 72 hrs by CLSI protocol based liquid medium dilution method; format: functional
Candida tropicalis = assay: Antifungal activity against Candida tropicalis ATCC 1369 assessed as fungal growth inhibition measured after 72 hrs by CLSI protocol based liquid medium dilution method; format: functional
Pichia kudriavzevii = assay: Antifungal activity against Candida krusei ATCC 6258 assessed as fungal growth inhibition measured after 72 hrs by CLSI protocol based liquid medium dilution method; format: functional
Nakaseomyces glabratus = assay: Antifungal activity against Candida glabrata ATCC 0001 assessed as fungal growth inhibition measured after 72 hrs by CLSI protocol based liquid medium dilution method; format: functional
Candida albicans [2] = assay: Antifungal activity against Candida albicans ATCC SC5314 assessed as change in lanosterol level at 4 ug/ml incubated for 48 hrs by LC-MS analysis (reference value: 3.7%); format: functional; settings: dose 4 µg/ml
[3] = target: Lanosterol 14-alpha demethylase (Candida albicans (strain SC5314 / ATCC MYA-2876) (Yeast), UniProt P10613); assay: Inhibition of CYP51 in Candida albicans ATCC SC5314 incubated for 30 mins using eburicol as substrate in presence of NADPH by HPLC analysis
Lanosterol 14-alpha demethylase, sequence (P10613 whole entry): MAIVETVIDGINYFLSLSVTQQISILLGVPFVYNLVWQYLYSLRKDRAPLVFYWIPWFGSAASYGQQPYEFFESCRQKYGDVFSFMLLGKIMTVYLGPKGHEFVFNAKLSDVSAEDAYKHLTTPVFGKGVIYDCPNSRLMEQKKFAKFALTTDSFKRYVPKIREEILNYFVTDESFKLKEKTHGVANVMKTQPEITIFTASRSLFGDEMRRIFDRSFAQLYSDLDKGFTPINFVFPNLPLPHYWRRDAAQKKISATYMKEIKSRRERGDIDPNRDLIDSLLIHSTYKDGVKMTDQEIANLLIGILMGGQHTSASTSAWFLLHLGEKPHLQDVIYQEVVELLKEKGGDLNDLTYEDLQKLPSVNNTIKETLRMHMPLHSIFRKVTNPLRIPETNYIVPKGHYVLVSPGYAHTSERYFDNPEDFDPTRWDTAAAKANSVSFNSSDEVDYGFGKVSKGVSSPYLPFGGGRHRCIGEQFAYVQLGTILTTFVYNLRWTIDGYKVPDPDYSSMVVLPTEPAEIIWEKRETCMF

Candida albicans [4] = assay: Induction of apoptosis in Candida albicans ATCC SC5314 cells assessed as necrotic cells at 8 ug/ml incubated for 72 hrs by Annexin V-FITC/PI staining based flow cytometry method (reference value: 3.76%); format: functional; settings: dose 8 µg/ml
Candida albicans [5] = assay: Antifungal activity against Candida albicans ATCC SC5314 assessed as change in eburicol level at 4 ug/ml incubated for 48 hrs by LC-MS analysis (reference value: 1.4%); format: functional; settings: dose 4 µg/ml
Candida albicans [6] = assay: Induction of apoptosis in Candida albicans ATCC SC5314 cells assessed as early apoptotic cells at 8 ug/ml incubated for 72 hrs by Annexin V-FITC/PI staining based flow cytometry method (reference value: 0.56%); format: functional; settings: dose 8 µg/ml
Candida albicans [7] = assay: Antifungal activity against fluconazole resistant Candida albicans strain 904 assessed as fungal growth inhibition measured after 72 hrs by CLSI protocol based liquid medium dilution method; format: functional
Candida albicans [8] = assay: Induction of apoptosis in Candida albicans ATCC SC5314 cells assessed as late apoptotic cells at 8 ug/ml incubated for 72 hrs by Annexin V-FITC/PI staining based flow cytometry method (reference value: 0.12%); format: functional; settings: dose 8 µg/ml
Candida albicans [9] = assay: Antifungal activity against fluconazole resistant Candida albicans strain 901 assessed as fungal growth inhibition measured after 72 hrs by CLSI protocol based liquid medium dilution method; format: functional
Candida albicans [10] = assay: Induction of apoptosis in Candida albicans ATCC SC5314 cells assessed as live cells at 8 ug/ml incubated for 72 hrs by Annexin V-FITC/PI staining based flow cytometry method (reference value: 95.56%); format: functional; settings: dose 8 µg/ml
Candida albicans [11] = assay: Antifungal activity against Candida albicans ATCC SC5314 assessed as decrease in ergosterol content at 4 ug/ml incubated for 48 hrs by LC-MS analysis (reference value: 90.6%); format: functional; parameters: scale not given: the % may be the effect or the level left; settings: dose 4 µg/ml
Candida albicans [12] = assay: Antifungal activity against fluconazole resistant Candida albicans strain 17# assessed as fungal growth inhibition measured after 72 hrs by CLSI protocol based liquid medium dilution method; format: functional
Candida albicans [13] = assay: Antifungal activity against Candida albicans ATCC SC5314 assessed as change in squalene level at 4 ug/ml incubated for 48 hrs by LC-MS analysis; format: functional; settings: dose 4 µg/ml
Candida albicans [14] = assay: Antifungal activity against fluconazole resistant Candida albicans strain CaR assessed as fungal growth inhibition measured after 72 hrs by CLSI protocol based liquid medium dilution method; format: functional
Candida albicans [15] = assay: Antifungal activity against Candida albicans ATCC SC5314 assessed as change in unknown sterol level at 4 ug/ml incubated for 48 hrs by LC-MS analysis (reference value: 4.3%); format: functional; settings: dose 4 µg/ml
Candida albicans [16] = assay: Antifungal activity against fluconazole resistant Candida albicans strain 103 assessed as fungal growth inhibition measured after 72 hrs by CLSI protocol based liquid medium dilution method; format: functional
Candida albicans [17] = assay: Antifungal activity against Candida albicans assessed as fungal growth inhibition measured after 72 hrs by CLSI protocol based liquid medium dilution method; format: functional

| Compound | MIC50 (Aspergillus fumigatus) [µg/mL] | MIC50 (Candida albicans [1]) [µg/mL] | MIC50 (Candida tropicalis) [µg/mL] | MIC50 (Pichia kudriavzevii) [µg/mL] | MIC50 (Nakaseomyces glabratus) [µg/mL] | other results |
| --- | --- | --- | --- | --- | --- | --- |
| CC(C)[C@H](NC(=O)c1ccc2c(c1)OCCO2)C(=O)Nc1cccnc1 | > 8 | 0.25 (≈ 0.703 µM) | 1 (≈ 2.81 µM) | 0.5 (≈ 1.41 µM) | 1 (≈ 2.81 µM) | – |
| CCC(C)[C@H](NC(=O)c1cccc2c1OCCO2)C(=O)N[C@@H](Cn1ccnc1)c1ccccc1 (stereo not given in full) | > 8 | 0.5 (≈ 1.08 µM) | 0.25 (≈ 0.54 µM) | 0.5 (≈ 1.08 µM) | 0.25 (≈ 0.54 µM) | – |
| O=C(N[C@H](Cc1ccccc1)Cn1cncn1)c1cccc2c1OCCO2 | 4 (≈ 11 µM) | 0.25 (≈ 0.686 µM) | 0.25 (≈ 0.686 µM) | 0.5 (≈ 1.37 µM) | 0.5 (≈ 1.37 µM) | – |
| CCC(C)[C@H](NC(=O)c1ccc2c(c1)OCCO2)C(=O)N[C@@H](Cn1cncn1)c1ccccc1 (stereo not given in full) | 4 (≈ 8.63 µM) | 0.25 (≈ 0.539 µM) | 0.25 (≈ 0.539 µM) | 0.25 (≈ 0.539 µM) | 0.5 (≈ 1.08 µM) | – |
| CCC(C)[C@H](NC(=O)c1ccc2c(c1)OCCO2)C(=O)Nc1ccncc1 (stereo not given in full) | > 8 | 0.5 (≈ 1.35 µM) | 0.5 (≈ 1.35 µM) | 1 (≈ 2.71 µM) | 2 (≈ 5.41 µM) | – |
| OC(Cn1cncn1)(Cn1cncn1)c1ccc(F)cc1F [FLUCONAZOLE] | > 8 | 0.25 (≈ 0.816 µM) | 0.5 (≈ 1.63 µM) | 0.5 (≈ 1.63 µM) | 0.25 (≈ 0.816 µM) | Activity (Candida albicans [2]): 21.6%; IC50 [3]: 148 nM; Activity (Candida albicans [4]): 18.59%; Activity (Candida albicans [5]): 40.6%; Activity (Candida albicans [6]): 1.83%; MIC50 (Candida albicans [7]): > 8 µg/mL; Activity (Candida albicans [8]): 3.02%; MIC50 (Candida albicans [9]): > 8 µg/mL; Activity (Candida albicans [10]): 76.56%; Activity (Candida albicans [11]): 29.5%; MIC50 (Candida albicans [12]): > 8 µg/mL; Activity (Candida albicans [13]): 2.7%; MIC50 (Candida albicans [14]): > 8 µg/mL; Activity (Candida albicans [15]): 5.6%; MIC50 (Candida albicans [16]): > 8 µg/mL |
| O=C(N[C@@H](Cn1ccnc1)c1ccccc1)c1ccc2c(c1)OCCO2 | > 8 | 0.25 (≈ 0.716 µM) | 0.25 (≈ 0.716 µM) | 0.5 (≈ 1.43 µM) | 0.25 (≈ 0.716 µM) | – |
| O=C(N[C@H](Cc1ccccc1)Cn1ccnc1)c1cccc2c1OCCO2 | > 8 | 0.5 (≈ 1.38 µM) | 0.25 (≈ 0.688 µM) | 0.5 (≈ 1.38 µM) | 0.25 (≈ 0.688 µM) | MIC50 (Candida albicans [17]): 0.5 µg/mL (≈ 1.38 µM) |
| O=C(N[C@@H](Cn1ccnc1)c1ccccc1)c1cccc2c1OCCO2 | > 8 | 0.5 (≈ 1.43 µM) | 0.5 (≈ 1.43 µM) | 1 (≈ 2.86 µM) | 0.5 (≈ 1.43 µM) | – |
| CCC(C)[C@H](NC(=O)c1cccc2c1OCCO2)C(=O)N[C@@H](Cn1cncn1)c1ccccc1 (stereo not given in full) | 4 (≈ 8.63 µM) | 0.125 (≈ 0.27 µM) | 0.25 (≈ 0.539 µM) | 0.25 (≈ 0.539 µM) | 0.5 (≈ 1.08 µM) | – |
| CCC(C)[C@H](NC(=O)c1ccc2c(c1)OCCO2)C(=O)Nc1cccnc1 (stereo not given in full) | 4 (≈ 10.8 µM) | 0.5 (≈ 1.35 µM) | 2 (≈ 5.41 µM) | 1 (≈ 2.71 µM) | 1 (≈ 2.71 µM) | – |
| CC(C)[C@H](NC(=O)c1ccc2c(c1)OCCO2)C(=O)N[C@@H](Cn1cncn1)c1ccccc1 | > 8 | 0.25 (≈ 0.556 µM) | 0.25 (≈ 0.556 µM) | 0.25 (≈ 0.556 µM) | 0.5 (≈ 1.11 µM) | – |
| CCC(C)[C@H](NC(=O)c1cccc2c1OCCO2)C(=O)Nc1ccncc1 (stereo not given in full) | 4 (≈ 10.8 µM) | 1 (≈ 2.71 µM) | 0.5 (≈ 1.35 µM) | 0.5 (≈ 1.35 µM) | 2 (≈ 5.41 µM) | – |
| CC(C)[C@H](NC(=O)c1cccc2c1OCCO2)C(=O)N[C@@H](Cn1ccnc1)c1ccccc1 | > 8 | 0.25 (≈ 0.557 µM) | 0.5 (≈ 1.11 µM) | 0.25 (≈ 0.557 µM) | 0.5 (≈ 1.11 µM) | MIC50 (Candida albicans [17]): 0.25 µg/mL (≈ 0.557 µM) |
| CC(C)[C@H](NC(=O)c1cccc2c1OCCO2)C(=O)Nc1ccncc1 | 4 (≈ 11.3 µM) | 0.5 (≈ 1.41 µM) | 0.5 (≈ 1.41 µM) | 1 (≈ 2.81 µM) | 0.5 (≈ 1.41 µM) | MIC50 (Candida albicans [17]): 0.5 µg/mL (≈ 1.41 µM) |
| CCOC(=O)[C@@H](NC(=O)c1cccc2c1OCCO2)C(C)C | – | – | – | – | – | MIC50 (Candida albicans [17]): 16 µg/mL (≈ 52.1 µM) |
| CCC(C)[C@H](NC(=O)c1ccc2c(c1)OCCO2)C(=O)N[C@@H](Cn1ccnc1)c1ccccc1 (stereo not given in full) | 2 (≈ 4.32 µM) | 0.125 (≈ 0.27 µM) | 0.5 (≈ 1.08 µM) | 0.25 (≈ 0.54 µM) | 0.125 (≈ 0.27 µM) | MIC50 (Candida albicans [7]): 4 µg/mL (≈ 8.65 µM); MIC50 (Candida albicans [9]): 2 µg/mL (≈ 4.32 µM); MIC50 (Candida albicans [12]): 2 µg/mL (≈ 4.32 µM); MIC50 (Candida albicans [14]): 2 µg/mL (≈ 4.32 µM); MIC50 (Candida albicans [16]): 1 µg/mL (≈ 2.16 µM) |
| CC(C)[C@H](NC(=O)c1ccc2c(c1)OCCO2)C(=O)N[C@@H](Cn1ccnc1)c1ccccc1 | 4 (≈ 8.92 µM) | 0.25 (≈ 0.557 µM) | 0.125 (≈ 0.279 µM) | 0.5 (≈ 1.11 µM) | 0.25 (≈ 0.557 µM) | – |
| O=C(N[C@@H](Cn1cncn1)c1ccccc1)c1ccc2c(c1)OCCO2 | > 8 | 0.125 (≈ 0.357 µM) | 0.5 (≈ 1.43 µM) | 0.5 (≈ 1.43 µM) | 0.125 (≈ 0.357 µM) | – |
| O=C(N[C@H](Cc1ccccc1)Cn1ccnc1)c1ccc2c(c1)OCCO2 | 4 (≈ 11 µM) | 0.5 (≈ 1.38 µM) | 0.5 (≈ 1.38 µM) | 0.5 (≈ 1.38 µM) | 0.25 (≈ 0.688 µM) | – |
| CC(C)[C@H](NC(=O)c1cccc2c1OCCO2)C(=O)Nc1cccnc1 | > 8 | 0.5 (≈ 1.41 µM) | 1 (≈ 2.81 µM) | 0.5 (≈ 1.41 µM) | 1 (≈ 2.81 µM) | – |
| CC(C)[C@H](NC(=O)c1ccc2c(c1)OCCO2)C(=O)Nc1ccncc1 | > 8 | 0.5 (≈ 1.41 µM) | 0.5 (≈ 1.41 µM) | 0.25 (≈ 0.703 µM) | 0.5 (≈ 1.41 µM) | – |
| O=C(NCCc1ccccc1)c1cccc2c1OCCO2 | – | – | – | – | – | MIC50 (Candida albicans [17]): 8 µg/mL (≈ 28.2 µM) |
| O=C(N[C@@H](Cn1cncn1)c1ccccc1)c1cccc2c1OCCO2 | > 8 | 0.125 (≈ 0.357 µM) | 0.5 (≈ 1.43 µM) | 0.25 (≈ 0.714 µM) | 1 (≈ 2.85 µM) | – |
| CCC(C)[C@H](NC(=O)c1cccc2c1OCCO2)C(=O)Nc1cccnc1 (stereo not given in full) | > 8 | 0.5 (≈ 1.35 µM) | 0.5 (≈ 1.35 µM) | 2 (≈ 5.41 µM) | 1 (≈ 2.71 µM) | – |
